Experimental data reported in patent publication US20230405003A1, “APPLICATION OF THYMIDINE DERIVATIVE IN PREPARATION OF DRUGS” (ONQUALITY PHARMACEUTICALS CHINA LTD., priority 2020, published 2023).
Like-named read-outs stand apart in the source and are kept apart here.

Assays:
Assay type in all cases: in vivo
[1] = test system: hand-foot syndrome caused by capecitabine in Balb/c mice; test: Mouse model of hand-foot syndrome caused by capecitabine, gel application or oral administration; conditions: capecitabine 1000 mg/kg once daily; for inhibition in vivo at 300 mg/kg / inhibition in vivo at 0.5 % / inhibition in vivo at 2 % / inhibition in vivo at 5 % / inhibition in vivo at 1 % / inhibition in vivo at 3 % / inhibition in vivo at 200 mg/kg / inhibition in vivo at 250 mg/kg: Mus musculus; for inhibition in vivo at 300 mg/kg / inhibition in vivo at 200 mg/kg / inhibition in vivo at 250 mg/kg: 192 h, 8 days; for inhibition in vivo at 300 mg/kg: oral 300 mpk twice per day; for inhibition in vivo at 0.5 % / inhibition in vivo at 2 % / inhibition in vivo at 5 % / inhibition in vivo at 1 % / inhibition in vivo at 3 %: topical, 360 h; for inhibition in vivo at 0.5 %: gel 0.5 wt%; for inhibition in vivo at 0.5 % / inhibition in vivo at 2 % / inhibition in vivo at 5 % / inhibition in vivo at 1 % / inhibition in vivo at 3 % / Control Rate Forepaws / Control Rate Hindpaws: 15 days; for inhibition in vivo at 2 %: gel 2 wt%; for inhibition in vivo at 5 %: gel 5 wt%; for inhibition in vivo at 200 mg/kg: oral 200 mpk twice per day; for inhibition in vivo at 250 mg/kg: oral 250 mpk twice per day
Method: A mouse animal model was established. 6-week aged male Balb/c mice were administered with capecitabine by daily gavage. After a few days, mice's paws developed hand-foot syndrome symptoms (similar to the results of the rat model, such as, in FIG. 13). Similar to the human body, mice developed hand-foot syndrome in the forepaws and hind paws after oral administration of capecitabine. The causes of the two are the same, and the disorder is also very similar. Therefore, mice are very good animal models for simulating the hand-foot syndrome caused by capecitabine.
After Balb/c mice were fed and adapted for one week (about 20 g), the mice were divided into groups, with 10 mice in each group. Then, the mice were subject to gavage administration. Capecitabine was dissolved in normal saline with pH=8, and the gavage dose was not greater than 0.3 mL at each time. After gavage, the blank gel was applied to the forepaws and the hind paws (about 4*0.5 cm*0.5 cm) in group of blank gel, and gels containing different drugs were applied to the forepaws and the hind paws (about 4*0.5 cm*0.5 cm) in group of administration. After application, the mice were fixed in Elizabethan collar for 4 hours. After 4 hours, the mice were released, wiped with clean water to remove any residual drug at the application site, and allowed back to the cage. The gavage and application tests are repeated daily until the group of blank has developed obvious hand-foot syndrome. […] Additionally, the thymidine derivative and the combination of thymidine derivative and uridine derivative were orally administered for observing the relief of the hand-foot syndrome. In examples 41-48, thymidine derivative and/or uridine derivative were/was applied, and in examples 49-52, thymidine derivative and/or uridine derivative were/was administered orally.
Table 5 lists the combinations of animal experiments of capecitabine and thymidine derivative (or a combination of thymidine derivative and uridine derivative) and the corresponding experimental results (wherein the data in the column of control rate=the occurrence rate of hand-foot syndrome in group of blank—the occurrence rate of hand-foot syndrome in group of administration).
The effect of thymidine derivative or a combination of thymidine derivative and uridine derivative on a mouse model with chemotherapeutic drug (capecitabine)-induced hand-foot syndrome was tested according to the method in Examples 41-52. Wherein, the drugs were administered transdermally for Examples 119-120 and orally for Examples 121-123.
(§1) The test thymidine derivative or the combination of thymidine derivative and uridine derivative, as well as the final concentration of the test compounds were shown in Table 9. Table 9 lists the combinations of animal experiments of capecitabine and the thymidine derivative gel (or a compounded gel of thymidine derivative and uridine derivative) and the corresponding experimental results (wherein the data in the column of control rate=the occurrence rate of hand-foot syndrome in Group of blank—the occurrence rate of hand-foot syndrome in Group of administration).

[2] = test system: hand-foot syndrome caused by Acelarin (NUC-1031) in rats; test: Rat model of hand-foot syndrome caused by Acelarin (NUC-1031), gel application; conditions: Acelarin (NUC-1031) 130 mg/kg intraperitoneal injection twice a week, gel 3 wt%, 30 days
Method: After SD rats were fed and adapted for one week (about 200 g), the rats were divided into groups, with 10 rats in each group. Then, the rats were subject to gavage administration. Capecitabine was dissolved in a 1:1 mixed solution of castor oil and ethanol and diluted for three times with PBS buffer. After gavage, the rats were fixed with a fixed cylinder, and a gel of thymidine derivative (or a compounded gel of thymidine derivative and uridine derivative) was applied to double hind paws (about 1 cm*3 cm) of the rats in group of administration (the types and concentrations are shown in Table 4), and a blank gel was applied to the group of blank (as a blank control). After approximately 4 hours of application, the rats were released after 4 hours, wiped with clean water to remove any residual drug at the application site, and allowed back to the cage. The thymidine derivative gel (or the compounded gel of thymidine derivative and uridine derivative) was administered with gavage every day. The gavage and application tests are repeated daily until the group of blank has developed obvious hand-foot syndrome.
The effects of thymidine derivative or a combination of thymidine derivative and uridine derivative on the chemotherapeutic drug-induced hand-foot syndrome in a rat model were tested according to the method in Examples 30-40. At the same time, paws of rats after treatment with the drug were taken and observed for their inflammation by hematoxylin-eosin staining (HE) and immunohistochemical staining (IHC).
as §1, with “8.” for “9.”, “8” for “9”, “animal experiment combination” for “combinations”, “a chemotherapeutical drug” for “animal experiments of capecitabine”, “the compound” for “a compounded”, “(wherein,” for “(wherein”

[3] = test system: 5-FU-induced diarrhea in Balb/c mice; test: 5-FU-induced diarrhea mouse model (175 mg/kg single i.p.); conditions: 5-FU 175 mg/kg single i.p.; for Survival Rate / Average Diarrhea Grade: 6 days; for Average Diarrhea Grade: score 0-4
Method: 7-8-week-old male Balb/c mice were used to establish a 5-FU induced diarrhea model to test the effect of the thymidine derivative or the combination of thymidine derivative and uridine derivative on the relief of diarrhea.
Modeling dose of 5-Fu: 175 mg/kg; single administration, intraperitoneal injection (ip.);
Administration mode of the compound to test (thymidine derivative or combination of thymidine derivative and uridine derivative): single administration, by gavage, advance administration of the compound to test at various time points prior to intraperitoneal injection of 5-FU. The compound to test was administered 1 h prior to the administration of 5-FU, a certain amount of 5-FU was injected intraperitoneally 1 h later, and the compound to test was administered once again 7 h after the injection of 5-FU.
The mice were fed and adapted for one week, and then divided into groups, with 10 mice in each group for administration test.
The mice in the Group of blank was injected with 0.9% NaCl, and evaluated the effect by observing the change of diarrhea grade, food uptake, and weight change. The severity of diarrhea was scored in accordance with the following standards: 0: normal feces, 1: soft feces, 2: slightly wet, soft feces, 3: wet, unformed feces, with moderate coloration in perianal region, 4: watery feces with heavy coloration of hair in perianal region. The severity of diarrhea was evaluated by occurrence scores of various grades of diarrhea (Scores 0 to 4) and average score of diarrhea. […] The models were stable, and satisfied the experimental requirements.
5-FU was dissolved in a 0.9% NaCl solution, the mice in the model group and the treatment group were all i.p. injected at a dose of 175 mg/kg/d, […]. While modeling of injection administration of 5-FU, the thymidine derivative or the combination of thymidine derivative and uridine derivative was administered by gavage, and the compounds to test were dissolved in a PBS solution containing 5% DMSO+1% HPMC. Body weight was weighed daily to count the weight change (Δ % BW, the weight changes recorded in the table were the values on Day 6), and the food was weighed daily to calculate the food uptake. The mice were daily observed for their clinical status, e.g., activity, diarrhea, hair, fighting, etc. After 6 days, the experiments were completed and statistically analyzed for the results.

[4] = read-out: Control Rate Forepaws
[5] = read-out: Control Rate Hindpaws

Question: CC(=O)OCC1OC(n2cc(C)c(=O)[nH]c2=O)CC1OC(C)=O (stereo not shown) [T1] was tested. Which inhibition in vivo at 300 mg/kg [1, 4] did it give?
Answer: The inhibition in vivo at 300 mg/kg was 80%.

Question: What about the inhibition in vivo at 300 mg/kg [1, 5] of the same compound?
Answer: Its inhibition in vivo at 300 mg/kg is 90%.

Question: What about the inhibition in vivo at 0.5 % [1, 4] of the same compound?
Answer: Its inhibition in vivo at 0.5 % is 30%.

Question: What about the inhibition in vivo at 0.5 % [1, 5] of the same compound?
Answer: The inhibition in vivo at 0.5 % was 20%.

Question: What about the inhibition in vivo at 2 % [1, 4] of the same compound?
Answer: The inhibition in vivo at 2 % was 45.6%.

Question: And the inhibition in vivo at 2 % [1, 5]?
Answer: The inhibition in vivo at 2 % was 34.4%.

Question: And the inhibition in vivo at 5 % [1, 4]?
Answer: Its inhibition in vivo at 5 % is 67.8%.

Question: What about the inhibition in vivo at 5 % [1, 5] of the same compound?
Answer: The inhibition in vivo at 5 % was 78.9%.

Question: How did the inhibition in vivo at 2 % [1, 4] turn out when CC(=O)O[C@H]1C[C@H](n2cc(C)c(=O)[nH]c2=O)O[C@@H]1CO [T2] was run?
Answer: The inhibition in vivo at 2 % was 40%.

Question: What about the inhibition in vivo at 2 % [1, 5] of the same compound?
Answer: The inhibition in vivo at 2 % was 27.5%.

Question: CC(=O)OC[C@H]1O[C@@H](n2cc(C)c(=O)[nH]c2=O)C[C@@H]1O [T3] was tested. Which inhibition in vivo at 2 % [1, 4] did it give?
Answer: Its inhibition in vivo at 2 % is 20%.

Question: And the inhibition in vivo at 2 % [1, 5]?
Answer: Its inhibition in vivo at 2 % is 30%.

Question: Which results are given for COc1ccc2cc([C@H](C)C(=O)OC[C@H]3O[C@@H](n4cc(C)c(=O)[nH]c4=O)C[C@@H]3O)ccc2c1 [T25]?
Answer: Control Rate Forepaws [2]: 57.14%; Control Rate Hindpaws [2]: 42.86%; inhibition in vivo at 5 % [1, 4]: 44.4%; inhibition in vivo at 5 % [1, 5]: 66.7%; inhibition in vivo at 1 % ([1]; transdermal 1% (wt %), read-out: Control Rate Forepaws): 22.2%; inhibition in vivo at 1 % ([1]; transdermal 1% (wt %), read-out: Control Rate Hindpaws): 44.4%; inhibition in vivo at 3 % ([1]; transdermal 3% (wt %), read-out: Control Rate Forepaws): 25%; inhibition in vivo at 3 % ([1]; transdermal 3% (wt %), read-out: Control Rate Hindpaws): 37.5%

Question: Which “Control Rate Forepaws” value ([1]; transdermal 1% (wt %)) does the source give for Cc1cn([C@H]2C[C@H](O)[C@@H](COC(=O)C(C)c3cccc(Oc4ccccc4)c3)O2)c(=O)[nH]c1=O (stereo partly drawn) [T27, ((2R,3S, 5R)-3-hydroxyl-5-(5-methyl-2,4-dioxy-3,4-dihydropyrimidin-1(2H)-yl)tetrahydrofuran-2-yl)2-(3-phenoxyphenyl)propionate Methyl] here?
Answer: The value was 50%.

Question: What about the “Control Rate Hindpaws” value ([1]; transdermal 1% (wt %)) of the same compound?
Answer: The value was 62.50%.

Question: What about the “Control Rate Forepaws” value ([1]; transdermal 3% (wt %)) of the same compound?
Answer: Its value is 42.86%.

Question: And the “Control Rate Hindpaws” value ([1]; transdermal 3% (wt %))?
Answer: The value was 71.43%.

Question: What does the source list for Cc1cn([C@H]2C[C@H](O)[C@@H](COC(=O)[C@H](C)c3ccc(CC(C)C)cc3)O2)c(=O)[nH]c1=O [T32]?
Answer: Control Rate Forepaws [2]: 50%; Control Rate Hindpaws [2]: 62.50%; inhibition in vivo at 300 mg/kg [1, 4]: 71.4%; inhibition in vivo at 300 mg/kg [1, 5]: 57.1%

Question: With Cc1ccc(C(=O)c2ccc(CC(=O)OC[C@H]3O[C@@H](n4cc(C)c(=O)[nH]c4=O)C[C@@H]3O)n2C)cc1 [T36] as the compound, how does the “Δ % BW (on Day 6)” value ([3]; 50 mpk gavage) read?
Answer: Its value is 2.25% ± 0.54%.

Question: What about the “Survival Rate” value ([3]; 50 mpk gavage) of the same compound?
Answer: Its value is 100%.

Question: What about the “Average Diarrhea Grade” value ([3]; 50 mpk gavage) of the same compound?
Answer: Its value is 1.6.

Question: For CC1=C(CC(=O)OC[C@H]2O[C@@H](n3cc(C)c(=O)[nH]c3=O)C[C@@H]2O)c2cc(F)ccc2/C1=C\c1ccc([S+](C)[O-])cc1 (stereo partly shown) [T40], which “Control Rate Forepaws” value [2] is on record?
Answer: Its value is 50%.

Question: And the “Control Rate Hindpaws” value [2]?
Answer: Its value is 62.50%.

Question: And the inhibition in vivo at 200 mg/kg [1, 4]?
Answer: Its inhibition in vivo at 200 mg/kg is 75%.

Question: And the inhibition in vivo at 200 mg/kg [1, 5]?
Answer: Its inhibition in vivo at 200 mg/kg is 88%.

Question: How did the inhibition in vivo at 250 mg/kg [1, 4] turn out when Cc1ccc(C(=O)c2ccc(CC(=O)O[C@H]3C[C@H](n4cc(C)c(=O)[nH]c4=O)O[C@@H]3CO)n2C)cc1 [T45] was run?
Answer: The inhibition in vivo at 250 mg/kg was 57.1%.

Question: And the inhibition in vivo at 250 mg/kg [1, 5]?
Answer: Its inhibition in vivo at 250 mg/kg is 42.9%.

Question: And the “Δ % BW (on Day 6)” value ([3]; 15 mpk gavage)?
Answer: Its value is −0.34% ± 0.36%.

Question: What about the “Survival Rate” value ([3]; 15 mpk gavage) of the same compound?
Answer: The value was 100%.

Question: What about the “Average Diarrhea Grade” value ([3]; 15 mpk gavage) of the same compound?
Answer: The value was 1.4.

Question: For Cc1cn([C@H]2C[C@H](OC(=O)C(C)c3cccc(C(=O)c4ccccc4)c3)[C@@H](CO)O2)c(=O)[nH]c1=O (stereo partly shown) [T50], which “Δ % BW (on Day 6)” value ([3]; 50 mpk gavage) is on record?
Answer: Its value is 2.08% ± 0.86%.

Question: What about the “Survival Rate” value ([3]; 50 mpk gavage) of the same compound?
Answer: The value was 100%.

Question: What about the “Average Diarrhea Grade” value ([3]; 50 mpk gavage) of the same compound?
Answer: The value was 1.1.
